The CheMixHub viscosity set

Test: xn = mol fraction of the nth substance listed

CCCCCOC(C)=O + CCCCCO
viscosity [mPa·s], 101.33 kPa
Details | x1 = 0.0982 | x1 = 0.1951 | x1 = 0.3024 | x1 = 0.4009 | x1 = 0.5015 | x1 = 0.6044 | x1 = 0.7081 | x1 = 0.8063 | x1 = 0.9007
293.15 K | 3.552 | 3.076 | 2.623 | 2.266 | 1.952 | 1.675 | 1.436 | 1.241 | 1.079
303.15 K | 2.583 | 2.279 | 1.984 | 1.747 | 1.534 | 1.343 | 1.174 | 1.034 | 0.915
313.15 K | 2.039 | 1.811 | 1.588 | 1.407 | 1.244 | 1.097 | 0.966 | 0.857 | 0.763
323.15 K | 1.198 | 1.103 | 1.001 | 0.924 | 0.847 | 0.776 | 0.709 | 0.652 | 0.601

O=C([O-])CC(O)(CC(=O)[O-])C(=O)[O-].[NH3+]CCO.[NH3+]CCO.[NH3+]CCO + O
viscosity [mPa·s], 101 kPa
Details | x1 = 0.0053 | x1 = 0.012 | x1 = 0.02 | x1 = 0.031 | x1 = 0.046 | x1 = 0.067 | x1 = 0.16
293.15 K | 1.211 | 1.575 | 2.21 | 3.385 | 6.303 | 12.36 | 106.7
303.15 K | 0.9345 | 1.18 | 1.608 | 2.382 | 4.312 | 8.015 | 66.19
313.15 K | 0.7529 | 0.9296 | 1.227 | 1.786 | 3.032 | 5.371 | 39.23
323.15 K | 0.6242 | 0.7501 | 0.9638 | 1.351 | 2.228 | 3.77 | 21.96

C1CCC2=[NH+]CCCN2CC1.c1nc[n-]n1 + CCO
303.15 K, 100 kPa
Details | viscosity [mPa·s]
x1 = 0.1001 | 4.38
x1 = 0.2 | 9.22
x1 = 0.2999 | 22.01
x1 = 0.4003 | 47.32
x1 = 0.4989 | 90.79
x1 = 0.6002 | 174.5
x1 = 0.7008 | 325.1
x1 = 0.7993 | 472.2
x1 = 0.9002 | 830.6

CCCCCOC(C)=O + COc1ccccc1
Details | viscosity [mPa·s]
298.15 K, 101 kPa, x2 = 0.5 | 0.8265

Cc1ccccc1O + CCCC(=O)O
viscosity [mPa·s], 101 kPa
Details | x2 = 0.1104 | x2 = 0.2183 | x2 = 0.3237 | x2 = 0.4268 | x2 = 0.5276 | x2 = 0.6262 | x2 = 0.7227 | x2 = 0.8171 | x2 = 0.9095
298.15 K | 6.565 | 5.731 | 4.976 | 4.317 | 3.725 | 3.167 | 2.698 | 2.265 | 1.862
308.15 K | 4.973 | 4.431 | 3.973 | 3.534 | 3.113 | 2.687 | 2.294 | 1.936 | 1.575
318.15 K | 3.375 | 3.191 | 2.968 | 2.723 | 2.463 | 2.194 | 1.914 | 1.62 | 1.307

CCCCCOC(C)=O + CCc1ccccc1
Details | viscosity [mPa·s]
298.15 K, 101 kPa, x2 = 0.089 | 0.7697

CC(C)CO + OCC(O)CO
viscosity [mPa·s], 101.33 kPa
Details | x2 = 0.1006 | x2 = 0.2008 | x2 = 0.2991 | x2 = 0.3991 | x2 = 0.5003 | x2 = 0.6005 | x2 = 0.7001 | x2 = 0.7997 | x2 = 0.8994
298.15 K | 4.625 | 7.894 | 14.39 | 26.58 | 56.03 | 118.3 | 233.2 | 395.9 | 595.4
308.15 K | 3.192 | 5.58 | 9.274 | 15.86 | 30.35 | 59.4 | 110.6 | 179.4 | 269.1
318.15 K | 2.33 | 3.788 | 6.116 | 9.794 | 17.19 | 32.13 | 55.06 | 86.54 | 120.9
